Assay results taken from patent US20080113907A1, “Uses Of Galectin-2” (Charite-Universitat-Smedizin Berlin, priority 2004, published 2008).
Where a SMILES comes first, the peptide text is derived from it. The star is where a group is joined. Cbz = O=C(OCc1ccccc1)*; CH2F = FC*

How the values were obtained:
[1] = tested on: PBT; experiment: Extent of apoptosis and necrosis (annexin-V, PI, DAPI staining); assay type: cell-based, human; settings: for effect on galectin-2 induced apoptosis: 50 mM; for effect on galectin-1 induced cell death / effect on galectin-2 induced T cell apoptosis / effect on galectin-7 induced cell death: caspase inhibitor 50 μM
Experimental: Apoptosis was determined by monitoring fragmentation of nuclear DNA and access of annexin V to c ell surface phosphatidylserine (PS). To detect fragmentation of nuclear DNA, T cells were cultured in the presence and absence of the respective galectins, with or without blocking antibodies or further activation for 48 h. Thereafter, cells were fixed in 0.2 ml of 37% formaldehyde for 10 min at room temperature. The cells were then treated with 1 ml PBS containing 0.2% Nonidet P-40 (Sigma-Aldrich) for 2 min at room temperature and then rinsed once in PBS. The apoptotic cells were detected by staining of nuclear DNA with 4,6-diamino-2-phenylindole (DAPI) (Calbiochem). DAPI was added at a concentration of 0.2 ng/ml of PBS and cells were incubated at room temperature for 20 min in this solution. Cells were rinsed twice in PBS and the coverslips were maintained cell side down on a microscope slide and analyzed using a Zeiss Axiovert 135M microscope (Carl Zeiss, Oberkochen, Germany). To detect early phases of apoptosis, access to PS was measured. Cells were cultured as described, harvested at the respective time points, stained with FITC-labeled annexin-V and PI and analyzed by flow cytometry using the CellQuest software program (BD Pharmingen). A minimum of 15,000 cells was monitored in each case.

[2] = tested on: dextran sodium sulfate induced colitis; experiment: Prevention of DSS induced acute colitis, disease activity index (DAI); assay type: in vivo, Balb/c mice; settings: 2 mg/kg i.p.; 10 days after induction; control 6.5 ± 0.3
Experimental: Colitis was induced in 8- to 10-week-old, female, Balb/c mice (Jackson Laboratories, Bar Harbor, Me.) by adding 5% DSS (Sigma Chemical Co., St. Louis, Mo.) (Dextran Sodiumsulfate (DSS) to their drinking water and allowing them to drink ad libitum. Groups of mice were treated either with 1 mg/kg BW (body weight) galectin-2 intraperitoneally or PBS 2 h before DSS administration. Mice were weighed and inspected for diarrhea and rectal bleeding. Seven days after induction of colitis by DSS, mice were killed, their entire colon was resected, and its length was measured and weighed. The disease activity index (DAI; i.e., the combined score of weight loss and bleeding) was determined according to a standard scoring system.
The disease activity index: Loss in bodyweight: 0=no loss; 1=5% to 10%; 2=10% to 15%; 3=15% to 20%; 4 ? 20%.
Hemoccult: 0=no blood; 2=positive; 4=gross blood.
In this experiment the DAI ranges from 0 to 8. The higher the DAI score the more severely the animal had been affected by colitis.
Colitis was induced in 8- to 10-week-old, female, Balb/c mice (Jackson Laboratories, Bar Harbor, Me.) by adding 5% DSS (Sigma Chemical Co., St. Louis, Mo.) (Dextran Sodiumsulfate (DSS) to their drinking water and allowing them to drink ad libitum. Groups of respectively 10 mice were treated either with Galectin-2 subcutaneously (s.c.) or intraperitoneally (i.p.) 2 h before DSS administration. In one trial with 10 mice the doses of Galectin-2 was doubled (administered i.p.) and compared to the treatment of 10 mice with Tacrolimus (FK506) (administered i.p.) in equal concentrations. In parallel a group of 10 mice was treated with 0.9% NaCl instead of Galectin-2 as control. Mice were weighed and inspected for diarrhea and rectal bleeding. 10 days after induction of colitis by DSS, mice were killed, their entire colon was resected, and its length was measured and weighed. The disease activity index (DAI; i.e., the combined score of weight loss and bleeding) was determined according to a standard scoring system.
The disease activity index: Loss in body weight: 0=no loss; 1=5% to 10%; 2=10% to 15%; 3=15% to 20%; 4 ? 20%.

[3] = tested on: T cells; experiment: Binding of biotinylated Gal-2 to T lymphocytes (flow cytometry); design: species or system human; settings: 50 mM
Experimental: To measure Gal-2 binding to T lymphocytes, aliquots of cell suspensions were kept as controls or stimulated for 1, 6, 12, 24, 48, and 72 h with anti-CD3 mAb or PMA and PHA and incubated in the presence of 5 μg/ml biotin-labeled Gal-2. Cells were then harvested, washed and stained with anti-CD3-FITC mAb and APC-labeled streptavidin (Biosource) followed by flow cytofluorometric analysis. Cells cultured in the absence of biotin-labeled Gal-2 and stained with FITC-labeled mouse IgG (BD Pharmingen) or APC-labeled streptavidin served as isotype controls. Each analysis was performed on at least 20,000 events.

[4] = tested on: T cells (PBT, LPT); experiment: Adhesion assay to collagen type I and fibronectin; assay type: cell-based, human; settings: PBT
Experimental: 96 well flat-bottom plates were precoated overnight at 4° C. with 12 μg/well fibronectin (Chemicon) in DPBS, 40 μg/well collagen type I (Sigma-Aldrich) in 0.1 M acetic acid, or 3% BSA (Sigma-Aldrich) in DPBS as a control and then washed three times with DPBS. Freshly isolated T cells were fluorescently-labelled with 5 μM calcein-AM (Molecular Probes, Eugene, Oreg.) for 30 min at 37° C. in 5% CO2 at 5×10^6 cells/ml in RPMI. The cells were then washed three times with RPMI containing 5% FCS. Calcein-labelled T cells were resuspended in RPMI and 5×10^5 T cells/well were added to 96-well plates containing purified ECM components or BSA for the indicated times. Saturating concentrations of integrin-blocking mAbs (predetermined by flow cytometry) were preincubated with T cells for 30 min at 37° C. before adding T cells to the wells for the adhesion assay. Nonadherent cells were removed by a standardized washing technique that was developed to minimize background binding, which includes both an orbital and a rocking motion repeated three times with RPMI. Adhesion was quantified with a multiwell fluorescent spectrophotometer (Tecan, Groedig, Austria). For each experimental group the results were expressed as the mean percentage±SD of bound T cells from triplicate wells.

[5] = tested on: PBT; experiment: Analysis of T cell cycling (DNA content, cyclin B1, cell cycle regulators); assay type: cell-based, human; settings: anti-CD3 activated PBT; dropped from 8% (galectin-1) and 7% (galectin-7)
Experimental: For immunoblotting cells were washed in PBS, and lysed in cell lysis buffer (1% Triton-X, 0.5% NP-40, 0.1% SDS, 0.5% sodium deoxycholate, 5 mM EDTA, 50 mM and 50 mM protease- and phosphatase-inhibitor cocktail 2, 1 mM PMSF, 100 μg/ml trypsin-chymotrypsin inhibitor, 100 μg/ml chymostatin in PBS). The concentration of proteins in each lysate was measured using the Bio-Rad protein assay (Bio-Rad Laboratories, Hercules, Calif.). Equivalent amounts of protein (10 μg) were fractionated on a 10-20% Tris-glycine gel and electrotransferred to a nitrocellulose membrane (Novex, San Diego, Calif.). Membranes were blocked with 5% milk in 0.1% Tween 20-PBS (Fisher Scientific, Hanover Park, Ill.), followed by incubation for 60 m in at room temperature with the indicated primary antibody. The membranes were washed six times with 0.1% Tween 20-PBS and then incubated for 1 h with the appropriate horseradish peroxidase-conjugated secondary antibody (Santa Cruz Biotechnology), washed, and incubated with the chemiluminescent substrate (Perkin-Elmer, Carlsbad, Calif.) for 5 minutes. The membranes were then exposed to film (Amersham, Arlington Heights, Ill.).
Flow cytometry was performed after staining for DNA content, and cyclin B1, essentially as previously described (21). Briefly, cells were washed twice with PBS, adjusted to 1×10^6 cells/sample and fixed in 90% Methanol at −20° C. After fixation, cells were washed twice with PBS, incubated for 45 min at 4° C. with a cyclin B1-FITC conjugated monoclonal antibody. After the final wash, cells were resupended in PBS and 5 μl of RNase (0.6 μg/ml, 30-60 Kunitz Units, Sigma), incubated at 37° C. for 15 min and the chilled on ice. One hundred and twenty five microliters of PI (200 μg/ml) were added prior to analysis by flow cytometry. Each analysis was performed on at least 25.000 events.

Molecule | effect on galectin-1 induced cell death [1] | effect on galectin-2 induced T cell apoptosis [1] | effect on galectin-7 induced cell death [1] | also measured
C=CC[C@@H]1/C=C(\C)C[C@H](C)C[C@H](OC)[C@H]2O[C@@](O)(C(=O)C(=O)N3CCCC[C@H]3C(=O)O[C@H](/C(C)=C/[C@@H]3CC[C@@H](O)[C@H](OC)C3)[C@H](C)[C@@H](O)CC1=O)[C@H](C)C[C@@H]2OC [Tacrolimus, reference compound] | – | – | – | apoptosis and necrosis of stimulated and unstimulated T cells ([1]; 0, 50, 100 μg/ml, 24 h, with or without anti-CD3): makes no distinction between stimulated and unstimulated T-cells and mainly induces necrosis; DAI (disease activity index) [2]: 2.4 ± 0.5,
O=P1(N(CCCl)CCCl)NCCCO1 (stereo not drawn) [cyclophosphamide] | – | – | – | effect on galectin-2 induced T cell death ([1]; 0, 10, 1000 nM, data not shown): failed to modulate galectin-2 induced T cell death
OC[C@H]1O[C@@H](O[C@H]2[C@H](O)[C@@H](O)C(O)O[C@@H]2CO)[C@H](O)[C@@H](O)[C@H]1O (stereo partly drawn) [lactose, reference compound] | – | – | – | effect on galectin-2 induced apoptosis [1]: largely inhibited; reduction of Gal-2 binding to T cells ([3]; unstimulated T cells): more than 70%
OC[C@H]1O[C@@](CO)(O[C@H]2O[C@H](CO)[C@@H](O)[C@H](O)[C@H]2O)[C@@H](O)[C@@H]1O [sucrose, reference compound] | – | – | – | effect on galectin-2 induced apoptosis [1]: not; effect on Gal-2 staining intensity of T cells ([3]; not shown): failed to affect the staining intensity
COC(=O)CC[C@H](NC(=O)[C@H](CC(=O)OC)NC(=O)OCc1ccccc1)C(=O)N[C@H](C(=O)N[C@@H](CC(=O)OC)C(=O)CF)C(C)C [zDEVD, Z-Asp-Glu-Val-Asp(OMe)-fluoromethylketone] | impair | significantly inhibited | inhibited | –
COC(=O)CC[C@H](NC(=O)[C@H](CC(C)C)NC(=O)OCc1ccccc1)C(=O)N[C@@H](Cc1cnc[nH]1)C(=O)N[C@@H](CC(=O)OC)C(=O)CF [zLEHD, Z-Leu-Glu(Ome)-His-Asp-(Ome)-Ch2F] (Cbz-LE(OMe)HD(OMe)-CH2F) | blocked | significantly inhibited | not | –
COC(=O)C[C@H](NC(=O)[C@H](C)NC(=O)[C@@H](NC(=O)OCc1ccccc1)C(C)C)C(=O)CF [zVAD, Z-Val-Ala-Asp(OMe)-fluoromethylketone] (Cbz-Val-Ala-Asp(OMe)-CH2F) | impair | significantly inhibited | inhibited | –
COC(=O)C[C@H](NC(=O)[C@H](C)NC(=O)[C@@H](NC(=O)[C@H](Cc1ccc(O)cc1)NC(=O)OCc1ccccc1)C(C)C)C(=O)CF [zYVAD, Z-Tyr-Val-Ala-Asp(Ome)-Ch2F] | – | had no effect | blocked | –
Z-Ile-Glu-Thr-Asp(OMe)-fluoromethylketone [zIETD] | blocked | had no effect | inhibited | –
galectin-7: another homodimeric proto-type galectin used for comparison | – | – | – | PBT apoptosis relative to galectin-2 ([1]; stimulated T cells): induced PBT apoptosis comparable to galectin-2; effect on PBT adhesion to collagen or fibronectin [4]: failed to significantly alter PBT adhesion to collagen or fibronectin; cyclin B1 expression [5]: 1%
